In US8802597B2, “Herbicidal pyrimidines” (E I du Pont de Nemours and Company, priority 2003, dated 2014):

Experiments:
Type in all cases: in vivo
[1] = tested on: Surinam grass (Brachiaria decumbens); assay: Test B pre/postemergence; settings: for Surinam Grass plant response rating: Postemergence; for Plant response rating, Surinam Grass: Preemergence
Procedure, shortened: (§1)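 Under greenhouse conditions, seeded pots and young plants (1- to 4-leaf, 2 to 18 cm) were treated at the same time with test chemicals in a non-phytotoxic solvent mixture containing surfactant. Response was assessed visually after 13 to 15 days, from 0 (no effect) to 100 (complete control).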

[2] = tested on: barnyardgrass (Echinochloa crus-galli); assay: Test B pre/postemergence; settings: for Barnyardgrass plant response rating: Postemergence; for Plant response rating, Barnyardgrass: Preemergence
Procedure, shortened: as §1

[3] = tested on: cocklebur (Xanthium strumarium); assay: Test B pre/postemergence; settings: for Cocklebur plant response rating: Postemergence; for Plant response rating, Cocklebur: Preemergence
Procedure, shortened: as §1

[4] = tested on: corn (Zea mays); assay: Test B pre/postemergence; settings: for Corn plant response rating: Postemergence; for Plant response rating, Corn: Preemergence
Procedure, shortened: as §1

[5] = tested on: crabgrass (Digitaria sanguinalis); assay: Test B pre/postemergence; settings: for Crabgrass plant response rating: Postemergence; for Plant response rating, Crabgrass: Preemergence
Procedure, shortened: as §1

[6] = tested on: giant foxtail (Setaria faberii); assay: Test B pre/postemergence; settings: for Foxtail, Giant plant response rating: Postemergence; for Plant response rating, Foxtail, Giant: Preemergence
Procedure, shortened: as §1

[7] = tested on: lambsquarters (Chenopodium album); assay: Test B pre/postemergence; settings: for Lambsquarters plant response rating: Postemergence; for Plant response rating, Lambsquarters: Preemergence
Procedure, shortened: as §1

[8] = tested on: morningglory (Ipomoea coccinea); assay: Test B pre/postemergence; settings: for Morningglory plant response rating: Postemergence; for Plant response rating, Morningglory: Preemergence
Procedure, shortened: as §1

[9] = tested on: pigweed (Amaranthus retroflexus); assay: Test B pre/postemergence; settings: for Pigweed plant response rating: Postemergence; for Plant response rating, Pigweed: Preemergence
Procedure, shortened: as §1

[10] = tested on: velvetleaf (Abutilon theophrasti); assay: Test B pre/postemergence; settings: for Velvetleaf plant response rating: Postemergence; for Plant response rating, Velvetleaf: Preemergence
Procedure, shortened: as §1

[11] = tested on: wheat (Triticum aestivum); assay: Test B pre/postemergence; settings: for Wheat plant response rating: Postemergence; for Plant response rating, Wheat: Preemergence
Procedure, shortened: as §1

[12] = tested on: blackgrass (Alopecurus myosuroides); assay: Test B postemergence; settings: scale 0 to 100 (0 no effect, 100 complete control)
Procedure, shortened: as §1

[13] = tested on: wild oat (Avena fatua); assay: Test B postemergence; settings: scale 0 to 100 (0 no effect, 100 complete control)
Procedure, shortened: as §1

[14] = tested on: barnyardgrass (Echinochloa crus-galli); assay: Test B flooded paddy test; settings: Flood, scale 0 to 100
Procedure, shortened: (§2)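 Plants were grown to the 2-leaf stage before treatment, then kept in a greenhouse for 13 to 15 days. Injury was rated visually against untreated controls on a 0 to 100 scale, where 0 is no effect and 100 is complete control.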

[15] = tested on: duck salad (Heteranthera limosa); assay: Test B flooded paddy test; settings: Flood, scale 0 to 100
Procedure, shortened: as §2

[16] = tested on: rice (Oryza sativa); assay: Test B flooded paddy test; settings: Flood, scale 0 to 100
Procedure, shortened: as §2

[17] = tested on: umbrella sedge (Cyperus difformis); assay: Test B flooded paddy test; settings: Flood, scale 0 to 100
Procedure, shortened: as §2

[18] = 62 g ai/ha, scale 0 to 100 (0 no effect, 100 complete control)
[19] = 125 g ai/ha, scale 0 to 100 (0 no effect, 100 complete control)
[20] = 62 g ai/ha, scale 0 to 100, 0 no effect, 100 complete control

## Nc1nc(-c2ccc(Cl)cc2)nc(C(=O)[O-])c1Cl.[Na+] [Compound 117]
[1]; [18]
  Surinam Grass plant response rating: 70
[1]; [19]
  Surinam Grass plant response rating: 70
  Plant response rating, Surinam Grass: 100
[1]; [20]
  Plant response rating, Surinam Grass: 80
[2]; [18]
  Barnyardgrass plant response rating: 90
[2]; [19]
  Barnyardgrass plant response rating: 90
  Plant response rating, Barnyardgrass: 30
[2]; [20]
  Plant response rating, Barnyardgrass: 10
[3]; [18]
  Cocklebur plant response rating: 100
[3]; [19]
  Cocklebur plant response rating: 100
  Plant response rating, Cocklebur: 90
[3]; [20]
  Plant response rating, Cocklebur: 50
[4]; [18]
  Corn plant response rating: 90
[4]; [19]
  Corn plant response rating: 90
  Plant response rating, Corn: 10
[4]; [20]
  Plant response rating, Corn: 0
[5]; [18]
  Crabgrass plant response rating: 60
[5]; [19]
  Crabgrass plant response rating: 80
  Plant response rating, Crabgrass: 90
[5]; [20]
  Plant response rating, Crabgrass: 90
[6]; [18]
  Foxtail, Giant plant response rating: 80
[6]; [19]
  Foxtail, Giant plant response rating: 80
  Plant response rating, Foxtail, Giant: 90
[6]; [20]
  Plant response rating, Foxtail, Giant: 20
[7]; [18]
  Lambsquarters plant response rating: 90
[7]; [19]
  Lambsquarters plant response rating: 100
  Plant response rating, Lambsquarters: 100
[7]; [20]
  Plant response rating, Lambsquarters: 90
[8]; [18]
  Morningglory plant response rating: 80
[8]; [19]
  Morningglory plant response rating: 100
  Plant response rating, Morningglory: 20
[8]; [20]
  Plant response rating, Morningglory: 10
[9]; [18]
  Pigweed plant response rating: 100
[9]; [19]
  Pigweed plant response rating: 100
  Plant response rating, Pigweed: 100
[9]; [20]
  Plant response rating, Pigweed: 100
[10]; [18]
  Velvetleaf plant response rating: 90
[10]; [19]
  Velvetleaf plant response rating: 100
  Plant response rating, Velvetleaf: 90
[10]; [20]
  Plant response rating, Velvetleaf: 70
[11]; [18]
  Wheat plant response rating: 50
[11]; [19]
  Wheat plant response rating: 70
  Plant response rating, Wheat: 80
[11]; [20]
  Plant response rating, Wheat: 50
[12]; 62 g ai/ha
  Blackgrass plant response rating: 60
[12]; 125 g ai/ha
  Blackgrass plant response rating: 70
[13]; 62 g ai/ha
  Oat, Wild plant response rating: 30
[13]; 125 g ai/ha
  Oat, Wild plant response rating: 50
[14]; 125 g ai/ha
  Plant response rating, Barnyardgrass: 20
[14]; 500 g ai/ha
  Plant response rating, Barnyardgrass: 70
[15]; 125 g ai/ha
  Plant response rating, Ducksalad: 100
[15]; 500 g ai/ha
  Plant response rating, Ducksalad: 100
[16]; 125 g ai/ha
  Plant response rating, Rice: 20
[16]; 500 g ai/ha
  Plant response rating, Rice: 50
[17]; 125 g ai/ha
  Plant response rating, Sedge, Umbrella: 80
[17]; 500 g ai/ha
  Plant response rating, Sedge, Umbrella: 90

## Nc1nc(-c2ccc(Br)cc2)nc(C(=O)O)c1Br [Compound 136]
[1]; [18]
  Surinam Grass plant response rating: 70
[1]; [19]
  Surinam Grass plant response rating: 80
  Plant response rating, Surinam Grass: 50
[1]; [20]
  Plant response rating, Surinam Grass: 10
[2]; [18]
  Barnyardgrass plant response rating: 70
[2]; [19]
  Barnyardgrass plant response rating: 90
[2]; [20]
  Plant response rating, Barnyardgrass: 30
[3]; [18]
  Cocklebur plant response rating: 90
[3]; [19]
  Cocklebur plant response rating: 100
  Plant response rating, Cocklebur: 70
[3]; [20]
  Plant response rating, Cocklebur: 40
[4]; [18]
  Corn plant response rating: 40
[4]; [19]
  Corn plant response rating: 70
  Plant response rating, Corn: 0
[4]; [20]
  Plant response rating, Corn: 0
[5]; [18]
  Crabgrass plant response rating: 70
[5]; [19]
  Crabgrass plant response rating: 80
  Plant response rating, Crabgrass: 80
[5]; [20]
  Plant response rating, Crabgrass: 70
[6]; [18]
  Foxtail, Giant plant response rating: 60
[6]; [19]
  Foxtail, Giant plant response rating: 70
  Plant response rating, Foxtail, Giant: 50
[6]; [20]
  Plant response rating, Foxtail, Giant: 10
[7]; [18]
  Lambsquarters plant response rating: 100
[7]; [19]
  Lambsquarters plant response rating: 100
  Plant response rating, Lambsquarters: 100
[7]; [20]
  Plant response rating, Lambsquarters: 90
[8]; [18]
  Morningglory plant response rating: 40
[8]; [19]
  Morningglory plant response rating: 100
  Plant response rating, Morningglory: 40
[8]; [20]
  Plant response rating, Morningglory: 10
[9]; [18]
  Pigweed plant response rating: 90
[9]; [19]
  Pigweed plant response rating: 100
  Plant response rating, Pigweed: 100
[9]; [20]
  Plant response rating, Pigweed: 80
[10]; [18]
  Velvetleaf plant response rating: 80
[10]; [19]
  Velvetleaf plant response rating: 90
  Plant response rating, Velvetleaf: 80
[10]; [20]
  Plant response rating, Velvetleaf: 60
[11]; [18]
  Wheat plant response rating: 20
[11]; [19]
  Wheat plant response rating: 60
  Plant response rating, Wheat: 70
[11]; [20]
  Plant response rating, Wheat: 50
[12]; 62 g ai/ha
  Blackgrass plant response rating: 70
[12]; 125 g ai/ha
  Blackgrass plant response rating: 70
[13]; 62 g ai/ha
  Oat, Wild plant response rating: 20
[13]; 125 g ai/ha
  Oat, Wild plant response rating: 50
[14]; 125 g ai/ha
  Plant response rating, Barnyardgrass: 0
[14]; 500 g ai/ha
  Plant response rating, Barnyardgrass: 20
[15]; 125 g ai/ha
  Plant response rating, Ducksalad: 90
[15]; 500 g ai/ha
  Plant response rating, Ducksalad: 90
[16]; 125 g ai/ha
  Plant response rating, Rice: 0
[16]; 500 g ai/ha
  Plant response rating, Rice: 40
[17]; 125 g ai/ha
  Plant response rating, Sedge, Umbrella: 90
[17]; 500 g ai/ha
  Plant response rating, Sedge, Umbrella: 90
